The target of the assay is human BTK (Homo sapiens (Human), UniProt Q06187). Nature of the assay: BTK activity, Invitrogen SelectScreen Biochemical Kinase Profiling Service, Z'-LYTE Screening Protocol. The note with it: Z'-LYTE assay, ATP concentration at Km. The procedure:
BTK activity was determined using Invitrogen's SelectScreen® Biochemical Kinase Profiling Service using the Z′-LYTE Screening Protocol and Assay Conditions (ATP concentration at Km).

The source of these data is patent US9956208B2, “Compounds for the treatment of cancer and inflammatory diseases” (C2 Pharmaceuticals, LLC, priority 2013, dated 2018).

Each structure is given as a SMILES string. Bounds are passed on as bounds.

Chain of human BTK (Q06187 whole entry): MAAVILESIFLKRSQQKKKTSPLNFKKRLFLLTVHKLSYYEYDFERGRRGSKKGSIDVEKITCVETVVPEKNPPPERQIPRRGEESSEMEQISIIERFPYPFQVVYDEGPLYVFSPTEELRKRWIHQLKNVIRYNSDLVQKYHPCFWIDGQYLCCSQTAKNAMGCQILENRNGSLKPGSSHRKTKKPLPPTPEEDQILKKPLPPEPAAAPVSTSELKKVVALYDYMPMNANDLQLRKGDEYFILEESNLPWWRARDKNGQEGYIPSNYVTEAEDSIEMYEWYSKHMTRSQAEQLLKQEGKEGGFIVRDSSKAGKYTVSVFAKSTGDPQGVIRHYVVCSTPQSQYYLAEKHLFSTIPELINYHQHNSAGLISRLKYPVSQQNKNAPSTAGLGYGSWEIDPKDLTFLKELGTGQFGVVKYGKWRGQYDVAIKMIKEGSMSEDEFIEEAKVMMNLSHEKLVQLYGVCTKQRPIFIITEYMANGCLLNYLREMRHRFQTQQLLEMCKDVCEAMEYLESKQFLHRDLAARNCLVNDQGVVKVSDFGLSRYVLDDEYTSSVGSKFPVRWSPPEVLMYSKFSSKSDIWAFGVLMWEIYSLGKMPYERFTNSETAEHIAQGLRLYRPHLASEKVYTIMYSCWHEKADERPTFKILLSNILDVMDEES

In turn, `Cc1ccc(O)cc1-n1nc2c3c([nH]c(=O)c2c1N)COc1c(NC(=O)/C=C/CN(C)C)cccc1-3` [Example 2, (2E)-N-[14-amino-15-(5-hydroxy-2-methylphenyl)-12-oxo-8-oxa-11,15,16-triazatetracyclo[8.7.0.0^2,7.0^13,17]heptadeca-1(10),2(7),3,5,13,16-hexaen-6-yl]-4-(dimethylamino)but-2-enamide] displayed an IC50 of less than 10 nM. For the compound `CN(C)C/C=C/C(=O)Nc1cccc2c1OCc1[nH]c(=O)c3c(N)n(-c4ccc(Oc5ccccc5)cc4)nc3c1-2` [Example 3, (2E)-N-[14-amino-12-oxo-15-(4-phenoxyphenyl)-8-oxa-11,15,16-triazatetracyclo[8.7.0.0^2,7.0^13,17]heptadeca-1(10),2(7),3,5,13,16-hexaen-6-yl]-4-(dimethylamino)but-2-enamide], the IC50 is less than 10 nM. `C=CC(=O)Nc1cccc2c1OCc1[nH]c(=O)c3c(N)n(-c4ccccc4F)nc3c1-2` [Example 4, N-[14-amino-15-(2-fluorophenyl)-12-oxo-8-oxa-11,15,16-triazatetracyclo[8.7.0.0^2,7.0^13,17]heptadeca-1(10),2(7),3,5,13,16-hexaen-6-yl]prop-2-enamide] showed an IC50 of 10 to 100 nM. Compound `C=CC(=O)Nc1cccc2c1OCc1[nH]c(=O)c3c(N)n(-c4cc(O)ccc4C)nc3c1-2` [Example 1, N-[14-amino-15-(5-hydroxy-2-methylphenyl)-12-oxo-8-oxa-11,15,16-triazatetracyclo[8.7.0.0^2,7.0^13,17]heptadeca-1(10),2(7),3,5,13,16-hexaen-6-yl]prop-2-enamide] gave a 50% inhibitory concentration (IC50) of less than 10 nM.

For orientation: IC50 means the concentration that inhibits the measured activity by half. Read a high IC50 as lower potency.
